In EP3441475A1, “NEUTRAL HEAT-SENSITIVE SERINE PROTEASE DERIVED FROM O. CORVINA” (priority 2017, dated 2019):
Where two headings read alike, the source gives them in different places.

Target: T1, NHSSP (Onygena corvina, UniProt A0A0B4VM82)
T1 sequence (A0A0B4VM82 113-391): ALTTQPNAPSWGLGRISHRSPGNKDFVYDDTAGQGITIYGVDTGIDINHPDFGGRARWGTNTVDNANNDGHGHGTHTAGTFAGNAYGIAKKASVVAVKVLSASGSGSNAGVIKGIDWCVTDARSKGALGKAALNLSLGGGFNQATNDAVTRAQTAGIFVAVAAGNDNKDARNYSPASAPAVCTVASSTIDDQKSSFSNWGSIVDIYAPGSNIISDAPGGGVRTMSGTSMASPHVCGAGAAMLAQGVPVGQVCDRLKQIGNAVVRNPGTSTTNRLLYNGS
Assay: biochemical
Type: biochemical
Experimental: The influence of different inhibitors on the enzymatic activity of NHSSP was determined by hydrolysis of azocasein in Britton-Robinson buffer pH 6.5 supplemented with appropriate substances. The reaction was stopped by the addition of TCA to the final concentration of 293 mM, centrifuged as described above, and the absorbance of supernatants was measured at 450 nm.
The enzymatic reaction was carried out at 40°C with a final inhibitor concentration of 1 mM.

[1] = final inhibitor concentration of 1 mM, 40°C, pH 6.5
[2] = remaining NHSSP activity, final inhibitor concentration of 1 mM, 40°C, Britton-Robinson buffer pH 6.5, read-out: Activity (%)

SMILES	inhibition of NHSSP protease activity (in words) [1]	activity at 1000 µM [2] [%]	activity at 1000 µM (pH 6.5) [%]	inhibition of NHSSP protease activity (in words) (pH 6.5)	Activity (%) (remaining NHSSP activity, final inhibitor concentration of 1 mM, 40°C, Britton-Robinson buffer pH 6.5)
OCCS [2-ß ME, ß-mercaptoethanol]	did not significantly inhibit protease activity	99			
O=C(O)CN(CCN(CC(=O)O)CC(=O)O)CC(=O)O [EDTA, ethylenediamine tetraacetate]			100	did not significantly inhibit protease activity	
O=S(=O)(F)Cc1ccccc1 [PMSF, phenylmethylsulfonyl fluoride]	identified as an inhibitor of NHSSP				40
O=C(O)CCP(CCC(=O)O)CCC(=O)O [TCEP]	did not significantly inhibit protease activity	97			
